Measurements taken from patent US12344618B2, “Heterotricyclic derivative compound and use of same” (HANMI PHARMACEUTICAL CO., LTD., priority 2019, dated 2025).
Where two headings read alike, the source gives them in different places.

Test system: KARPAS-422 (EZH2 Y641N mutation)
Test: Cell growth inhibition test, KARPAS-422
Assay type: cell-based
Details: KARPAS-422, culture time 7 days, read-out: Cell growth inhibitory activity (GI50, nM) KARPAS-422 (EZH2 Y641N mutation)
Description: Each type of the cultured cells was seeded in 6-well plates or 48-96 well plates, and subculture or medium replacement was performed every 3 to 4 days. Next, the cells were subcultured for a total of 7 to 14 days, and then seeded in 96-well plates. 3 to 5 days before the measurement of the effect, the cells were seeded in 96-well plates, and then the absorbance (Tz) on the day of seeding was measured. The absorbance after the reaction was measured by the plate reader device Synergy NeoAlpha (Biotek) using Cell-Titer-Glo Cell Viability Assay (Promega, G7573) according to the attached manual. Based on the absorbance (Tz) measured on the seeding day and the absorbance of each of the DMSO-treated group (C) and the sample-added group (Ti) measured on the day of effect determination, the percentage of cell proliferation inhibition was calculated according to the following Equation 1. [(Ti−Tz)/(C−Tz)]×100 for concentrations for which Ti≥Tz […] for concentrations for which Ti<Tz. [Equation 1]

[1] = Homo sapiens, KARPAS-422, 168 h

| Compound | GI50 [1] [nM] | GI50 [nM] |
| --- | --- | --- |
| Cc1cc(C)c(CN2CCc3c(c(C)c4c(c3C3CCCC3)OC(C)([C@H]3CC[C@H](N(C)C)CC3)O4)C2=O)c(=O)[nH]1 (stereo partly drawn) [Compound 58, 9-cyclopentyl-6-((4,6-dimethyl-2-oxo-1,2-dihydropyridin-3-yl)methyl)-2-(trans-4-(dimethylamino)cyclohexyl)-2,4-dimethyl-7,8-dihydro-[1,3]dioxolo[4,5-g]isoquinolin-5(6H)-one] | 13 | – |
| Cc1cc(C)c(CN2CCc3c(Cl)c4c(c(C)c3C2=O)OC(C)([C@@H]2CC[C@H](N(C)C)C2)O4)c(=O)[nH]1 (relative stereo) [Compound 37, 9-chloro-6-((4,6-dimethyl-2-oxo-1,2-dihydropyridin-3-yl)methyl)-2-(cis-3-(dimethylamino)cyclopentyl)-2,4-dimethyl-7,8-dihydro-[1,3]dioxolo[4,5-g]isoquinolin-5(6H)-one] | 22 | – |
| Cc1cc(C)c(CN2CCc3c(c(C)c4c(c3C(C)C)OC(C)([C@H]3CC[C@H](N(C)C)CC3)O4)C2=O)c(=O)[nH]1 (stereo partly drawn) [Compound 62, 6-((4,6-dimethyl-2-oxo-1,2-dihydropyridin-3-yl)methyl)-2-(trans-4-(dimethylamino)cyclohexyl)-9-isopropyl-2,4-dimethyl-7,8-dihydro-[1,3]dioxolo[4,5-g]isoquinolin-5(6H)-one] | 6.2 | – |
| Cc1cc(C)c(CN2CCc3c(C)c4c(c(Cl)c3C2=O)OC(C)([C@H]2CC[C@H](N(C)C)CC2)O4)c(=O)[nH]1 (single isomer, unassigned) [Compound 6, 4-chloro-6-((4,6-dimethyl-2-oxo-1,2-dihydropyridin-3-yl)methyl)-2-(trans-4-(dimethylamino)cyclohexyl)-2,9-dimethyl-7,8-dihydro-[1,3]dioxolo[4,5-g]isoquinolin-5(6H)-one] | – | 310 |
| Cc1cc(C)c(CN2CCc3c(Cl)c4c(c(C)c3C2=O)OC(C)([C@H]2C[C@H](N(C)C)C2)O4)c(=O)[nH]1 (stereo partly drawn) [Compound 35, 9-chloro-6-((4,6-dimethyl-2-oxo-1,2-dihydropyridin-3-yl)methyl)-2-(trans-3-(dimethylamino)cyclobutyl)-2,4-dimethyl-7,8-dihydro-[1,3]dioxolo[4,5-g]isoquinolin-5(6H)-one] | 57 | – |
| Cc1cc(C)c(CN2CCc3c(Cl)c4c(c(C)c3C2=O)OC(C)([C@@H]2CCC[C@H](N(C)C)C2)O4)c(=O)[nH]1 (relative stereo) [Compound 36, 9-chloro-6-((4,6-dimethyl-2-oxo-1,2-dihydropyridin-3-yl)methyl)-2-(cis-3-(dimethylamino)cyclohexyl)-2,4-dimethyl-7,8-dihydro-[1,3]dioxolo[4,5-g]isoquinolin-5(6H)-one] | 87 | – |
| Cc1cc(C)c(CN2CCc3c(c(C)c4c(c3C3CCCCC3)OC(C)([C@H]3CC[C@H](N(C)C)CC3)O4)C2=O)c(=O)[nH]1 (stereo partly drawn) [Compound 60, 9-cyclohexyl-6-((4,6-dimethyl-2-oxo-1,2-dihydropyridin-3-yl)methyl)-2-(trans-4-(dimethylamino)cyclohexyl)-2,4-dimethyl-7,8-dihydro-[1,3]dioxolo[4,5-g]isoquinolin-5(6H)-one] | 28 | – |
| Cc1cc(C)c(CN2CCc3c(Cl)c4c(c(C)c3C2=O)OC(C)(c2ccc3c(ccn3C)c2)O4)c(=O)[nH]1 (centres unmarked) [Compound 32, 9-chloro-6-((4,6-dimethyl-2-oxo-1,2-dihydropyridin-3-yl)methyl)-2,4-dimethyl-2-(1-methyl-1H-indol-5-yl)-7,8-dihydro-[1,3]dioxolo[4,5-g]isoquinolin-5(6H)-one] | > 1000 | – |
| CO[C@H]1CC[C@H](C2(C)Oc3c(C)c4c(c(Cl)c3O2)CCN(Cc2c(C)cc(C)[nH]c2=O)C4=O)CC1 (stereo partly drawn) [Compound 33, 9-chloro-6-((4,6-dimethyl-2-oxo-1,2-dihydropyridin-3-yl)methyl)-2-(trans-4-methoxycyclohexyl)-2,4-dimethyl-7,8-dihydro-[1,3]dioxolo[4,5-g]isoquinolin-5(6H)-one] | 187 | – |
| Cc1cc(C)c(CN2CCc3c(cc4c(c3C)OC(C)([C@H]3CC[C@H](N(C)C)CC3)O4)C2=O)c(=O)[nH]1 (stereo partly drawn) [Compound 3, 6-((4,6-dimethyl-2-oxo-1,2-dihydropyridin-3-yl)methyl)-2-(trans-4-(dimethylamino)cyclohexyl)-2,9-dimethyl-7,8-dihydro-[1,3]dioxolo[4,5-g]isoquinolin-5(6H)-one] | 39 | – |

Further lines, results first:

| GI50 [1] [nM] | GI50 [nM] | Compound |
| --- | --- | --- |
| 4.3 | – | Cc1cc(C)c(CN2CCc3c(c(C)c4c(c3-c3cncs3)OC(C)([C@H]3CC[C@H](N(C)C)CC3)O4)C2=O)c(=O)[nH]1 (stereo partly drawn) [Compound 67, 6-((4,6-dimethyl-2-oxo-1,2-dihydropyridin-3-yl)methyl)-2-(trans-4-(dimethylamino)cyclohexyl)-2,4-dimethyl-9-(thiazol-5-yl)-7,8-dihydro-[1,3]dioxolo[4,5-g]isoquinolin-5(6H)-one] |
| 4.4 | – | CCc1c2c(c(C)c3c1OC(C)([C@H]1CC[C@H](N(C)C)CC1)O3)C(=O)N(Cc1c(C)cc(C)[nH]c1=O)CC2 (stereo partly drawn) [Compound 63, 6-((4,6-dimethyl-2-oxo-1,2-dihydropyridin-3-yl)methyl)-2-(trans-4-(dimethylamino)cyclohexyl)-9-ethyl-2,4-dimethyl-7,8-dihydro-[1,3]dioxolo[4,5-g]isoquinolin-5(6H)-one] |
| 13 | – | Cc1cc(C)c(CN2CCc3c(c(C)c4c(c3C3=CCCC3)OC(C)([C@H]3CC[C@H](N(C)C)CC3)O4)C2=O)c(=O)[nH]1 (stereo partly drawn) [Compound 57, 9-(cyclopent-1-en-1-yl)-6-((4,6-dimethyl-2-oxo-1,2-dihydropyridin-3-yl)methyl)-2-(trans-4-(dimethylamino)cyclohexyl)-2,4-dimethyl-7,8-dihydro-[1,3]dioxolo[4,5-g]isoquinolin-5(6H)-one] |
| 28 | – | Cc1cc(C)c(CN2CCc3c(c(C)c4c(c3C3=CCCCC3)OC(C)([C@H]3CC[C@H](N(C)C)CC3)O4)C2=O)c(=O)[nH]1 (stereo partly drawn) [Compound 59, 9-(cyclohex-1-en-1-yl)-6-((4,6-dimethyl-2-oxo-1,2-dihydropyridin-3-yl)methyl)-2-(trans-4-(dimethylamino)cyclohexyl)-2,4-dimethyl-7,8-dihydro-[1,3]dioxolo[4,5-g]isoquinolin-5(6H)-one] |
| 6.4 | – | Cc1cc(C)c(CN2CCc3c(c(C)c4c(c3-c3cccnc3)OC(C)([C@H]3CC[C@H](N(C)C)CC3)O4)C2=O)c(=O)[nH]1 (stereo partly drawn) [Compound 66, 6-((4,6-dimethyl-2-oxo-1,2-dihydropyridin-3-yl)methyl)-2-(trans-4-(dimethylamino)cyclohexyl)-2,4-dimethyl-9-(pyridin-3-yl)-7,8-dihydro-[1,3]dioxolo[4,5-g]isoquinolin-5(6H)-one] |
| 8.8 | – | Cc1cc(C)c(CN2CCc3c(c(C)c4c(c3C3=CCOCC3)OC(C)([C@H]3CC[C@H](N(C)C)CC3)O4)C2=O)c(=O)[nH]1 (some centres unmarked) [Compound 65] |
| 11 | – | Cc1cc(C)c(CN2CCc3c(c(C)c4c(c3-c3ccccc3)OC(C)([C@H]3CC[C@H](N(C)C)CC3)O4)C2=O)c(=O)[nH]1 (stereo partly drawn) [Compound 56, 6-((4,6-dimethyl-2-oxo-1,2-dihydropyridin-3-yl)methyl)-2-(trans-4-(dimethylamino)cyclohexyl)-2,4-dimethyl-9-phenyl-7,8-dihydro-[1,3]dioxolo[4,5-g]isoquinolin-5(6H)-one] |
